# Data: ChEMBL document CHEMBL3638560, “Picolinamido-propanoic acid derivatives useful as glucagon receptor antagonists” (2014)
# Biological target: Glucagon receptor (Homo sapiens, UniProt P47871)
# Assay: Binding Assay: The binding assay was performed by a filtration method in a 384 well format. Membranes at a final protein concentration of 6 μg/well were incubated with 125I-glucagon at 0.3 nM and in the presence of compound for 2 hours at room temperature in a total reaction volume of 40 μL per well. Assay buffer consisted of 50 mM HEPES, pH 7.4, 5 mM MgCl2, 1 mM CaCl2 and 0.2% BSA. 30 μL of the reaction was then transferred to PEI treated filter plates and followed by filter aspiration. Plates were then washed 5x and allowed to dry at room temperature overnight. The next day the bottom of the plate was covered with seal tape and scintillant was added. Total counts retained by the filters were quantified with a Top Count instrument.
# Sequence of Glucagon receptor (P47871 whole entry): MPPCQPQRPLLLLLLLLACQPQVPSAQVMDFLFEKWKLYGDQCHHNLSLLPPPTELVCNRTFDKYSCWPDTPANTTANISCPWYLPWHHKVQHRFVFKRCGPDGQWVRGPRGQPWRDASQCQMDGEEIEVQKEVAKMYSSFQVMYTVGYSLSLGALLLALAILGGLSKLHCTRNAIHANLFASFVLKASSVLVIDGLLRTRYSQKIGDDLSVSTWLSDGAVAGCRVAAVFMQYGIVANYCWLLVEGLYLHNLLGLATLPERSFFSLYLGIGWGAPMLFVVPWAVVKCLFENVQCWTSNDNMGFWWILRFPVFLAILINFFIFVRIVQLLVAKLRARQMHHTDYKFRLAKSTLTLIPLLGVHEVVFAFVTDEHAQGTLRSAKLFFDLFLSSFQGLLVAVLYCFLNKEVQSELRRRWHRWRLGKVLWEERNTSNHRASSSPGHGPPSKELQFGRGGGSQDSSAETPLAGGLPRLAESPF
structure (smiles),measurement,value
O=C(O)CCNC(=O)c1ccc(-c2cc(C(F)(F)F)ccc2CNc2ccc(-c3ccc(Cl)cc3C(F)(F)F)cc2)cn1,Ki,47 nM
